Laboratory results published in US7868135B2, “Compositions of lipopeptide antibiotic derivatives and methods of use thereof” (priority 2003, dated 2011).

Assays:
[1] = In vivo half-life after single i.v. administration, mice; settings: female, Swiss CD1, mouse, plasma, iv, 10 mg/kg
Description: (§1) Yet other exemplary in vivo models can be used to characterize the pharmacokinetics and pharmacodynamic parameters of antimicrobial compounds of this disclosure. Some parameters that can be measured include an in vivo half-life of a compound, elimination rate and clearance, volume of distribution, and bioavailability. For example, briefly, compounds can be administered as a single i.v. or oral (p.o.) dose in mice or rats. At various time points (ranging from 1 minute to 72 hours), blood from treated animals is collected and the concentration of lipopeptide derivative in the ex vivo plasma can be quantified by, for example, liquid chromatography with mass spectrometric detection (LC/MS). After quantification, pharmacokinetics parameters can be calculated using methods known in the art, such as a one compartment model with mono-exponential decay and linear regression analysis (see, e.g., Fantin et al., Antimicrob. Agents Chemotherap. 35: 1413. 1991).
(§2) A pharmacokinetic parameter that can be measured, and which aids in determining efficacy, after a single i.v. administration of an antimicrobial lipopeptide derivative of the instant disclosure is the systemic half-life of the compound. Briefly, test compounds were dissolved in a 5% mannitol solution (pH was then adjusted) to a concentration of 1 mg/mL (w/v). A single intravenous injection in the lateral caudal vein of Swiss CD1 mice (5 to 6 weeks old, female) or Sprague Dawley rats (male) was used to administer the lipopeptide derivative at a final dose of 10 mg/kg. At various time points (ranging from about 4 minutes to about 24 hours for mice, and 48 or 72 hours for rats) mice were sacrificed and blood was harvested. The concentration of lipopeptide derivative in ex vivo plasma was quantified using liquid chromatography (LC) with mass spectrometric detection (MS).

[2] = test system: S. pneumoniae (SPN 0032, ATCC 10813); experiment: Intraperitoneal murine model of protection against infection (ED50, Table 21); type: in vivo, Streptococcus pneumoniae; settings: Swiss CD1 mice infected i.p., compound i.v.
Text: (§3) A variety of in vivo models may be used to assess the antimicrobial properties of lipopeptide derivative compounds of this disclosure. For example, antimicrobial compounds of the instant disclosure may be tested for efficacy by measuring a compound's ability to protect a mouse against a microbial infection, such as an infection or disease caused by or related to Gram-positive bacteria, including Staphylococcus aureus, Streptococcus pneumoniae, and Enterococcus faecalis. […] A certain period after infection, mice are then individually treated, for example intravenously (i.v.), with a lipopeptide derivative of this disclosure.
(§4) Antimicrobial lipopeptide derivatives of the instant invention were tested for antimicrobial activity against Gram-positive bacteria in an intraperitoneal (i.p.) murine model (i.e., bacteria were injected i.p. and lipopeptide compounds were administered intravenously (i.v.)). Mice were infected with Staphylococcus aureus, Streptococcus pneumoniae, or Enterococcus faecalis, which were prepared as follows: S. aureus Smith (SAU0017, ATCC 19636) were grown in culture overnight on trypticase soy broth, harvested and then resuspended in fresh media containing 5% mucin (Sigma Chemical Co.); S. pneumoniae (SPN 0032, ATCC 10813) were grown overnight on blood agar plates and re-suspended in 0.9% sterile saline; and E. faecalis EFS0040 (clinical isolate) were grown overnight in culture on blood heart infusion broth, washed and resuspended in 0.9% saline and mixed with equal volume of sterile fecal rat extract. Swiss CD1 mice were each infected i.p. with bacteria at the following doses: S. aureus at 10^6 CFU/mouse; S. pneumoniae at 10^2 CFU/mouse; or E. faecalis at 10^7.5 CFU/mouse. […] The ED50 for each compound was calculated using the method of Reed and Meunch (Am. J. Hyg. 27: 493, 1938).

[3] = Acute toxicity, maximum tolerated dose (MTD); settings: Swiss CD1, mouse, in vivo, iv
Description: Another measure of toxicity is the maximum tolerated dose (MTD), which is determined as a dose level that is not accompanied by mortality or life-threatening toxicity. The dose ratio between toxic and therapeutic effect is the therapeutic index. […] The data obtained from these cell culture assays and animal studies can be used in formulating a dosage range that is not toxic for use in human subjects. […] The dosage may vary within this range depending upon the dosage form employed and the route of administration utilized. The exact formulation, route of administration and dosage can be chosen by the individual physician in view of the patient's condition or need thereof (see, e.g., Fingl et al., 1975, In: The Pharmacological Basis of Therapeutics, Chapter 1).
For example, to examine acute toxicity, lipopeptide antibiotics of the invention can be tested in an animal model, such as Swiss CD1 mice, to determine the MTD. In certain embodiments, the animals used to test toxicity of a particular compound can be approximately 5-6 weeks old at the start of the experiment and weigh 22-26 g. The lipopeptides may be administered intravenously (i.v.) into, for example, the caudal tail vein at dose levels that range from about 50 to about 500 mg/kg, or from about 75 to about 250 mg/kg, or from about 100 to about 200 mg/kg, or at a dose range at or below 100 mg/kg. The animals are generally observed immediately after administration, 1-2 hours post administration, 5-8 hours post administration, and once daily thereafter. Observations include both the activity level of the mouse as well as any physical side effects from the administered dose. The animal weight is recorded on day 0 (immediately before dosing) and on day 7.

[4] = test system: S. aureus Smith (SAU0017, ATCC 19636); experiment: Intraperitoneal murine model of protection against infection (ED50, Table 21); type: in vivo, Staphylococcus aureus; settings: Swiss CD1 mice infected i.p., compound i.v.
Text: as §3, §4

[5] = test system: Staphylococcus aureus (MSSA); settings: 24 h
Summary of the method: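 Broth microdilution MIC per NCCLS M7-A6 with doubling serial dilutions, in cation-adjusted Mueller-Hinton broth supplemented with 0.625 mM calcium.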

[6] = test system: E. faecalis EFS0040 (clinical isolate); experiment: Intraperitoneal murine model of protection against infection (ED50, Table 21); type: in vivo, Enterococcus faecalis; settings: Swiss CD1 mice infected i.p., compound i.v.
Text: as §3, §4

Staphylococcus aureus = type: cell-based; settings: for Post Antibiotic Effect (hours) 0.5 × MIC: exposure one hour at 0.5 × MIC, S. aureus log phase; for Post Antibiotic Effect (hours) 1 × MIC: exposure one hour at 1 × MIC; for Post Antibiotic Effect (hours) 2 × MIC: exposure one hour at 2 × MIC; for Post Antibiotic Effect (hours) 4 × MIC: exposure one hour at 4 × MIC
Description: An exemplary pharmacokinetic parameter to aid in characterizing the properties of lipopeptide derivative compounds of the disclosure is post-antibiotic effect (PAE) of a lipopeptide derivative. For example, a bacterial culture with an initial count of 10^6 to 10^7 colony forming units per ml (CFU/ml) is treated with a certain concentration of lipopetide derivative for a certain time and a parallel (control) culture is left untreated. After treatment, the lipopetide derivative is removed from the culture (e.g., by dilution 1:1000 in fresh, lipopetide derivative-free medium), and the untreated culture is manipulated in the same way. Then the cultures are further incubated and monitored for bacterial growth over time. […] By way of background and not wishing to be bound by theory, a lipopeptide derivative having a measurable PAE activity will likely provide additional time for the host immune system to remove bacteria that might have survived antibiotic treatment and reproduced after the antibiotic is degraded, removed or filtered from the circulatory system. A longer PAE can influence the clinical outcome of antimicrobial therapy (i.e., a lower dose of a lipopetide derivative may be used to treat an infection or the frequency of a dosing regimen can be reduced).
After removal of the lipopeptide compounds, bacterial titre was determined each hour to monitor bacterial re-growth. The PAE duration is defined as the difference in time required for antimicrobial exposed bacterial cells versus unexposed bacterial cells to achieve an increase of 1 log10 unit in CFU/mL.

in vivo = settings: male, Sprague Dawley, rat, plasma, iv, 10 mg/kg
Description: as §1, §2

[7] = test system: Streptococcus pneumoniae (SPN032, ATCC 1081); experiment: Intranasal murine lung infection model; type: in vivo; settings: Swiss CD1 mice, i.n. S. pneumoniae, i.v. treatment at 3, 24 and 48 hours post-infection, deaths over ten days
Description: Other exemplary in vivo models of infection that may be used to assess, for example, the efficacy of an antimicrobial lipopeptide of the instant disclosure include the following: (A) a mouse (murine) model of lung infection (pneumonia) wherein the bacterial infection is administered intranasally (i.n.); (B) a murine thigh muscle model wherein the bacterial infection is administered intramuscularly (i.m.) in normal or neutropenic (immunocompromised) mice; and (C) a combination murine thigh muscle model (i.m. infection)/lung (i.n.) infection.
Antimicrobial lipopeptide derivatives of the instant invention were tested for antimicrobial activity against Gram-positive bacteria in an intranasal (i.n.) murine lung infection model (i.e., bacteria were innoculated i.n. and lipopeptide compounds were administered i.v.). Streptococcus pneumoniae (SPN032, ATCC 1081) were grown on 5% sheep blood agar plates for 24 h at 37° C., harvested and then resuspended in 0.9% saline. A group of eight Swiss CD1 mice were sedated with 2% isoflurane, and each was infected i.n. dropwise to the nares with 50 μl of the prepared bacterial inoculum (i.e., a dose of about 10^6 CFU/mouse). […] The ED50 (mg/kg) for each compound was calculated using the method of Reed and Meunch (Am. J. Hyg. 27: 493, 1938).

[8] = test system: Streptococcus pneumoniae (SPN0002); experiment: Lung infection model in neutropenic mice; type: in vivo
Description: Antimicrobial lipopeptide derivatives of the instant invention were tested for antimicrobial activity against Gram-positive bacteria in an intranasal (i.n.), immunocomprimised murine lung infection model (i.e., bacteria were innoculated i.n. and lipopeptide compounds were administered i.v.). Streptococcus pneumoniae (SPN0002) were grown on 5% sheep blood agar plates for 24 h at 37° C., harvested and then resuspended in 0.9% saline. A group of three to four Swiss CD1 mice were rendered neutropenic by administration of cyclophosphamide (Sigma Chemical Co.; 150 mg/kg, i.p.) on day −4 and −1 before infection. At time −18 to −24 hours, each mouse was infected i.n. dropwise via the nares with 50 μl of the prepared bacterial inoculum (i.e., a dose of about 5×10^6 CFU/mouse). At 18 to 24 hours post-infection, the groups of mice received i.v. (1) a lipopeptide derivative formulated in a 5% D-mannitol solution at a dose of about 1 mg/kg, 3 mg/kg, 10 mg/kg, or 30 mg/kg; (2) the 5% mannitol vehicle alone at a dose volume of 10 mL/kg; or (3) a known antibiotic, such as ampicillin, at a similar dose as the lipopeptide compounds. At 18 to 24 hours post-antibiotic treatment, mice were sacrificed and lungs harvested. Lungs were sampled by spreading homogenates on blood agar plates and incubating for 24 h at 37° C., and then counting the number of CFU. The EKill (killing effect; i.e., log10 CFU/lung reduction as compared to CFU count at intial treatment time) and the EMax (maximum reduction effect; i.e., log10 CFU/lung reduction as compared to CFU count of control at 24 hours) for each compound was calculated.

Row | Compound | half-life [1] | ED50 in Mice, S. pneumoniae (SPN0032) [2] | MTD at 7 days [3] | ED50 in Mice, S. aureus (SAU0017) [4] | MIC [5] | ED50 in Mice, E. faecalis (EFS0040) [6] | MIC used for the PAE experiment (Staphylococcus aureus) | Post Antibiotic Effect (hours) 0.5 × MIC (Staphylococcus aureus) | Post Antibiotic Effect (hours) 1 × MIC (Staphylococcus aureus) | Post Antibiotic Effect (hours) 2 × MIC (Staphylococcus aureus) | Post Antibiotic Effect (hours) 4 × MIC (Staphylococcus aureus) | half-life (in vivo) | ED50 [7] | EKill (log10 CFU/lung reduction versus count at initial treatment time) ([8]; 30 mg/kg i.v.) | log10 CFU/lung reduction (EMax, versus control at 24 hours) ([8]; highest dose level 30 mg/kg i.v.) | ED50 ([6]; Enterococcus faecalis, read-out: ED50 in Mice, E. faecalis (EFS0040))
1 | CCCCCCCCCCCCCCC(=O)NC(CC(=O)O)C(=O)NC1C(=O)N2CCCCC2C(=O)NC(C(C)C(=O)O)C(=O)NC(CC(=O)O)C(=O)NCC(=O)NC(CC(=O)O)C(=O)NCC(=O)NC(C(C)NC(=O)CN)C(=O)NC(C(C)C)C(=O)N2CCCC2C(=O)NC1C (stereo not shown) [Compound 3, C15-Amphomycin-9-Gly] | 6.65 h | 1.3 mg/kg | 50 to 200 mg/kg | 4.9 mg/kg |  |  |  |  |  |  |  |  |  |  |  | 
2 | CCCCCCCCCCCCCCNC(=O)NC(CC(=O)O)C(=O)NC1C(=O)N2CCCCC2C(=O)NC(C(C)C(=O)O)C(=O)NC(CC(=O)O)C(=O)NCC(=O)NC(CC(=O)O)C(=O)NCC(=O)NC(C(C)NC(=O)CCN)C(=O)NC(C(C)C)C(=O)N2CCCC2C(=O)NC1C (stereo not drawn) [Compound 278, CH3—(CH2)13—NH—C(═O)-Amphomycin-9-(β-Ala)] | 7.45 h |  | 200 to 400 mg/kg | 7.1 mg/kg | 0.5 µg/mL | 5.3 mg/kg | 2 µg/mL | 1.5 h | 2.6 h | 2.2 h | 3.2 h | 7.08 h |  |  |  | 
3 | CCCCCCCCCCCC(=O)Nc1ccc(C(=O)NC(CC(=O)O)C(=O)NC2C(=O)N3CCCCC3C(=O)NC(C(C)C(=O)O)C(=O)NC(CC(=O)O)C(=O)NCC(=O)NC(CC(=O)O)C(=O)NCC(=O)NC(C(C)NC(=O)CCN)C(=O)NC(C(C)C)C(=O)N3CCCC3C(=O)NC2C)cc1 (stereo not drawn) [Compound 280, C12-PABA-Amphomycin-9-(β-Ala)] | 5.75 h |  | 200 to 400 mg/kg | 6.5 mg/kg |  | 2.1 mg/kg |  | 2.5 h | 1.5 h | 1.9 h | 2.4 h | 7.07 h | 1.8 mg/kg |  |  | 
4 | CC1(C)S[C@@H]2[C@H](NC(=O)[C@H](N)c3ccccc3)C(=O)N2[C@H]1C(=O)O [ampicillin, reference compound] |  |  |  |  |  |  |  |  |  |  |  |  |  | 1.8 log10 CFU/lung | 2.58 log10 CFU/lung | 4.2 mg/kg
